US7655799B2, “2{[2-(substituted amino)ethyl]sulfonyl}ethyl N,N,N',N'-tetrakis(2-chloroethyl)phosphorodiamidates” (Telik, Inc., priority 2006, dated 2010)

What was measured:
[1] = tested on: DLD-1 (colorectal adenocarcinoma); assay: Cytotoxicity/Growth Inhibition Assay (CellTiter-Glo), DLD-1; type: cell-based; details: Homo sapiens, DLD-1, 96 h; hydrochloride salts; 4 days culture
Method: (§1) The human cancer cell lines DLD-1 (colorectal adenocarcinoma), LNCaP (prostate carcinoma), and MIA PaCa-2 (pancreatic carcinoma) were obtained from the American Type Culture Collection, Manassas, Va., U.S.A., and MX-1 (breast carcinoma) from the National Cancer Institute, Bethesda, Md., U.S.A. The CellTiter-Glo assay kit was obtained from Promega Corporation, Madison, Wis., U.S.A. All products were used in accordance with manufacturer's directions. All assays were conducted in triplicate wells, with dimethyl sulfoxide (DMSO) solvent control. The extent of cell growth was expressed as a percentage of the signal from the solvent control wells.
(§2) Log-phase cells were trypsinized, collected by centrifugation, and resuspended in a small volume of fresh medium, and the density of viable cells was determined following Trypan Blue staining. Cells were diluted in fresh media (3×10^3 cells/mL for DLD-1, MIA PaCa-2, and MX-1, and 6×10^3 cells/mL for LNCaP), and added at 150 μL/well to 96-well plates, and incubated for several hours to allow attachment in the case of adherent cells. Compounds 1A to 5A, as their hydrochloride salts, dissolved in DMSO, was diluted 50-fold with fresh medium and the diluted solutions immediately added at 50 μL/well to the cell suspensions, giving final compound concentrations between 0.1 μM and 200 μM and a final DMSO concentration of 0.5%. The cells were cultured for approximately three doubling times (3 days for MIA PaCa-2 and MX-1, and 4 days for DLD-1 and LNCaP). The cells were then collected by centrifugation, and 100 μL of the culture supernatant was replaced by the CellTiter-Glo reagent. After incubation for 10 minutes at room temperature, and the plate was read with a luminometer. A number of compounds of formula A were tested in this assay and found to be active.

MX-1 (breast carcinoma) = assay: Cytotoxicity/Growth Inhibition Assay (CellTiter-Glo), MX-1; type: cell-based; details: Homo sapiens, 72 h; hydrochloride salts; 3 days culture
Method: as §1, §2

[2] = tested on: LNCaP (prostate carcinoma); assay: Cytotoxicity/Growth Inhibition Assay (CellTiter-Glo), LNCaP; type: cell-based; details: Homo sapiens, 96 h, hydrochloride salts, 4 days culture
Method: as §1, §2

[3] = tested on: MIA PaCa-2 (pancreatic carcinoma); assay: Cytotoxicity/Growth Inhibition Assay (CellTiter-Glo), MIA PaCa-2; type: cell-based; details: Homo sapiens, MIA PaCa-2, 72 h; hydrochloride salts; 3 days culture
Method: as §1, §2

MIA PaCa-2 tumor = assay: MiaPaCa-2 Xenograft Assay, Intraperitoneal Administration; type: in vivo, athymic nu/nu mice; details: 100 mg/Kg intraperitoneal once/day for 7 days; for tumor growth inhibition compared to vehicle: hydrochloride salts in aqueous 5% dextrose
Method: Male athymic nu/nu mice, 6-8 weeks old (approximately 20 g), were implanted subcutaneously in the right fore flank with 20-30 mg pieces of MIA PaCa-2 tumor harvested from similar nu/nu mice that had previously been implanted with the MIA PaCa-2 tumor. […] A group of mice was treated with compounds 2A, 3A, and 5A, in all cases as the hydrochloride salts dissolved in aqueous 5% dextrose, at 100 mg/Kg by intraperitoneal injection once/day for 7 consecutive days, with vehicle control.

MX-1 tumor [4] = assay: MX-1 Xenograft Assay, Intravenous Administration; type: in vivo, athymic nu/nu mice; details: hydrochloride salt in aqueous 5% dextrose
Method: (§3) Female athymic nu/nu mice (Harlan, Indianapolis, Ind., U.S.A. or similar vendor), 6-8 weeks old (approximately 20 g), were implanted in the mammary fat pad of the right fore flank with 20-30 mg pieces of MX-1 tumor harvested from similar nu/nu mice that had previously been implanted with the MX-1 tumor. […] Groups of mice were treated with compounds 2A and 3A at 50 mg/Kg and compounds 1A, 2A, 3A, and 5A at 100 mg/Kg, in all cases as the hydrochloride salts dissolved in aqueous 5% dextrose, by intraperitoneal injection once/day for 5 consecutive days, with vehicle control. Tumor mass, estimated from volume, was measured twice weekly; and tumor growth inhibition was measured when the average tumor mass in the control group first exceeded 2000 mg. All compounds were active in this assay, with tumor growth inhibition compared to vehicle of 70% and 23% for compounds 2A and 3A, respectively, at 50 mg/Kg, and 100%, 100%, 100%, and 91% for compounds 1A, 2A, 3A, and 5A, respectively, at 100 mg/Kg.
A study similar to that described in In vivo Example 1 was performed using intravenous administration of compound 2A. A group of mice was treated with the compound, as the hydrochloride salt dissolved in aqueous 5% dextrose, at 40 and 80 mg/Kg by tail vein injection once/day for 5 consecutive days, with vehicle control.

[5] = tested on: human cancer cell lines DLD-1, LNCaP, MIA PaCa-2, MX-1; assay: Cytotoxicity/Growth Inhibition Assay, all cell lines, comparison with canfosfamide; type: cell-based; details: all assays (DLD-1, LNCaP, MIA PaCa-2, MX-1)
Method: as §1
Log-phase cells were trypsinized, collected by centrifugation, and resuspended in a small volume of fresh medium, and the density of viable cells was determined following Trypan Blue staining. Cells were diluted in fresh media (3×10^3 cells/mL for DLD-1, MIA PaCa-2, and MX-1, and 6×10^3 cells/mL for LNCaP), and added at 150 μL/well to 96-well plates, and incubated for several hours to allow attachment in the case of adherent cells. […] After incubation for 10 minutes at room temperature, and the plate was read with a luminometer. […]

[6] = Solubility in water of salts; details: for solubility: water, solubility in water
MX-1 tumor [7] = assay: MX-1 Xenograft Assay, Oral Administration; type: in vivo, athymic nu/nu mice; details: hydrochloride salt in water
Method: as §3
A study similar to that described in In vivo Example 1 was performed using oral administration of compounds 2A and 3A. Groups of mice were treated with compound 2A at 100, 150, 200, or 300 mg/Kg, or compound 3A at 150 mg/Kg, in each case as the hydrochloride salts dissolved in water, by gavage once/day for 5 consecutive days, with vehicle control. Both compounds were active in this assay and compound 2A caused dose-dependent tumor inhibition.

MX-1 tumor [8] = assay: MX-1 Xenograft Assay, Intraperitoneal Administration; type: in vivo, athymic nu/nu mice; details: hydrochloride salts in aqueous 5% dextrose
Method: as §3

[9] = 50 mg/Kg intraperitoneal once/day for 5 days
[10] = 100 mg/Kg intraperitoneal once/day for 5 days

| SMILES | IC50 [1] [µM] | IC50 (MX-1 (breast carcinoma)) [µM] | IC50 [2] [µM] | IC50 [3] [µM] | body weight effect (MIA PaCa-2 tumor) | tumor growth inhibition compared to vehicle (MIA PaCa-2 tumor) [%] | inhibition of tumor growth compared to vehicle (MX-1 tumor [4]; 40 mg/Kg tail vein injection once/day for 5 days) [%] | inhibition of tumor growth compared to vehicle (MX-1 tumor [4]; 80 mg/Kg tail vein injection once/day for 5 days) [%] | potency relative to canfosfamide [5] | solubility in water (in words) ([6]; tartrate salt) | solubility ([6]; citrate salt) [mg/mL] | solubility ([6]; hydrochloride salt) [mg/mL] | inhibition of tumor growth compared to vehicle (MX-1 tumor [7]; 100 mg/Kg by gavage once/day for 5 days) [%] | inhibition of tumor growth compared to vehicle (MX-1 tumor [7]; 300 mg/Kg by gavage once/day for 5 days) [%] | tumor growth inhibition compared to vehicle (MX-1 tumor [8]; [9]) [%] | tumor growth inhibition compared to vehicle (MX-1 tumor [8]; [10]) [%] | inhibition of tumor growth compared to vehicle (MX-1 tumor [7]; 150 mg/Kg by gavage once/day for 5 days) [%] | solubility in water (in words) ([6]; citrate salt) | solubility in water (in words) ([6]; hydrochloride salt) |
| --- | --- | --- | --- | --- | --- | --- | --- | --- | --- | --- | --- | --- | --- | --- | --- | --- | --- | --- | --- |
| O=P(OCCS(=O)(=O)CCN1CCCC1)(N(CCCl)CCCl)N(CCCl)CCCl [Compound 4A, 2-{[2-(pyrrolidin-1-yl)ethyl]sulfonyl}ethyl N,N,N′,N′-tetrakis(2-chloroethyl)phosphorodiamidate] | 8.6 | 26 | 100 | 29 | – | – | – | – | – | – | – | – | – | – | – | – | – | – | – |
| CCN(CC)CCS(=O)(=O)CCOP(=O)(N(CCCl)CCCl)N(CCCl)CCCl [Compound 2A, 2-{[2-(diethylamino)ethyl]sulfonyl}ethyl N,N,N′,N′-tetrakis(2-chloroethyl)phosphorodiamidate] | 7.9 | 16 | 75 | 16 | some body weight loss | 89 | 53 | 99 | more potent | slightly more soluble than the citrate salt | ~19 | ≥ 50 | 92 | 100 | 70 | 100 | – | – | – |
| CC(C)N(CCS(=O)(=O)CCOP(=O)(N(CCCl)CCCl)N(CCCl)CCCl)C(C)C [Compound 3A, 2-{[2-(diisopropylamino)ethyl]sulfonyl}ethyl N,N,N′,N′-tetrakis(2-chloroethyl)phosphorodiamidate] | 5 | 5 | 16 | 6.8 | some body weight loss | 89 | – | – | more potent | – | – | – | – | – | 23 | 100 | 98 | – | – |
| CN(C)CCS(=O)(=O)CCOP(=O)(N(CCCl)CCCl)N(CCCl)CCCl [Compound 1A, 2-{[2-(dimethylamino)ethyl]sulfonyl}ethyl N,N,N′,N′-tetrakis(2-chloroethyl)phosphorodiamidate] | 11 | 43 | 130 | 39 | – | – | – | – | – | – | – | – | – | – | – | 100 | – | somewhat more soluble than the citrate salt of compound 2A | highly soluble in water |
| O=P(OCCS(=O)(=O)CCN1CCCCC1)(N(CCCl)CCCl)N(CCCl)CCCl [Compound 5A, 2-{[2-(piperidin-1-yl)ethyl]sulfonyl}ethyl N,N,N′,N′-tetrakis(2-chloroethyl)phosphorodiamidate] | 13 | 41 | 140 | 36 | some body weight loss | 62 | – | – | – | – | – | – | – | – | – | 91 | – | – | – |
